Consider two substances from article PMC9181589, “Antamanide Analogs as Potential Inhibitors of Tyrosinase” (International Journal of Molecular Sciences, 2022).

Entries after “also recorded” stand apart in the source; their conditions may differ.

Experiment [1] concerns B16F10 metastatic cells. The settings on record: after 24 h of treatment; cited from earlier work. An excerpt: In the past years, we evaluated the chemical and biological activities of the cyclic decapeptide antamanide, firstly isolated from the lipophilic fraction of an extract of Amanite phalloides by the T. Wieland’s group in 1962 [3]. A characteristic of this peptide is its ability to form complexes of high stability with metal ions, including Na^+, K^+, Ca^2+, Tl^3+, and others. A close correlation has been found between the ion binding properties and the selectivity for Na^+ over K^+ with its antitoxic activity against phallotoxins and the prevention of their accumulation ... || Antamanide is a cyclic decapeptide isolated from the lipophilic fraction of an extract of the green toadstool Amanite phalloides, able to form complexes of high stability with different metal ions. In order to improve the hydrophilicity of this peptide, the Phe residue at either the six or nine positions was replaced with a Gly residue.

The test system of experiment [2] is mushroom tyrosinase. The experiment can be described thus: Tyrosinase inhibition, UV-Vis spectroscopic method (L-Tyr oxidation by tyrosinase/O2). It is filed as biochemical. An excerpt:
The capability of peptides to inhibit the activity of tyrosinase has been evaluated by a UV-Vis spectroscopic method monitoring the changes in the UV-Vis spectrum of its natural substrate, L-Tyr. […] The addition of enzyme firstly hydroxylated the L-Tyr residue to dihydroxyphenylalanine (DOPA) and successively oxidized DOPA to dopaquinone, which is then converted to dopachrome (Scheme 2). Both DOPA and dopaquinone appearance can be detected by the change in the UV-Vis spectrum. The hydroxylation of L-Tyr to DOPA is characterized by an increase in the intensity of the band at 275 nm and the appearance of an additional band at about 304 nm, while the oxidation to dopaquinone is made detectable by the appearance of a band at 470–490 nm. […] This phase is related to the monophenolase activity of the enzyme and essentially is due to the low amount of the oxy form of the tyrosinase enzyme in the commercially available preparation. Although other various factors may play an important role, including substrate and enzyme concentration, enzyme source, pH of the medium, and presence of hydrogen donors such as DOPA or other catechols, also the presence of transition metal ions can influence the presence and the length of this lag-phase.
Millimolar peptide stock solutions were prepared in DMSO and then diluted to μM concentration by buffer in UV cells. […] The capability of peptides to inhibit the tyrosinase activity was evaluated at two different peptide concentrations, 2 and 0.2 µM.
The capability of cyclic peptides to inhibit the oxidation of Tyr by the tyrosinase/O2 oxidizing system was monitored by means of a UV-Vis spectroscopy method, carried out in a Shimadzu UV-Visible UV-2501 spectral spectrophotometer using Helma (Mülheim, Germany) duple chambers UV-cell (2 × 4.375 mm). Briefly, 880 µL of a Tyr solution (2 mM) and 900 µL of a mushroom tyrosinase solution (2000 U/mL, Sigma-Aldrich), both dissolved in 50 mM phosphate buffer (pH 6.8), were separately introduced in the duple UV-cell chambers. A total of 20 µL of an appropriate DMSO stock solution of inhibitors (1.8, 0.18, or 0.018 mM) were added to the chamber containing the Tyr solution. The tyrosinase activity in absence of inhibitors was detected by adding 20 µL of DMSO. A background UV-Vis spectrum was acquired in the 250–800 nm wavelength range with a 2.0 nm slit and fast speed before starting the reaction. Thereafter, the solutions were mixed, and UV-Vis spectra were acquired at different time points after mixing. Three replicates were performed for each experiment. Data processing was performed with UV Probe (Shimazdu, Kyoto, Japan) and OriginPro 2019 (v. 9.60) software (OriginLab Corporation, Northampton, MA, USA).
Purchased mushroom tyrosinase was used without further purification. […] The concentration of the two solution was determined spectrophotometrically (εTyr at 274.6 nm = 1.420; εtyrosinase at 280 nm = 1.426).
Tyrosinase-dependent diphenol and o-quinone formation was assessed as the appearance of a characteristic absorption band at about 304 and 477 nm, respectively. The inhibition activity was determined according to the following equation [33, 34]:% inhibition = 1 − [(D − C)/(B − A)] ∗ 100 where C and D are the absorbance values at either 304 or 477 nm in presence of inhibitor before mixing and upon reaching the maximum absorbance, respectively, while A and B are the corresponding values in absence of inhibitor.

For experiment [3] the following is noted: cited from earlier work. An excerpt: Antamanide is a cyclic decapeptide isolated from the lipophilic fraction of an extract of the green toadstool Amanite phalloides, able to form complexes of high stability with different metal ions. In order to improve the hydrophilicity of this peptide, the Phe residue at either the six or nine positions was replaced with a Gly residue.

As to antamanide, the “cell proliferation of metastatic melanoma cell line” value in experiment [1] was “significant reduction of cell proliferation”. For the same substance, the “effects on tyrosinase activity” value in experiment [2] (antamanide concentration 20 µM, data not shown) was “absence of effects”. Also, in experiment [2] (peptide 2 and 0.2 µM from DMSO stock, L-Tyr substrate, 50 mM phosphate buffer pH 6.8, UV-Vis at 304 and 477 nm, three replicates), the tyrosinase inhibitory activity result is “did not inhibit; also recorded: No inhibitory activity; also recorded: not able to inhibit”. Moreover, in experiment [3], the ions selectivity entry is given as “Ca > Na >> K”.
As for pseudostellarin A [PS-A], the “dependence of tyrosinase inhibitory activity on peptide concentration” value in experiment [2] (2 versus 0.2 µM (Figure 4)) is on record as “lower when the concentration was higher”. Further, in experiment [2] (calculated at 303 nm, peptide 2 and 0.2 µM, 50 mM phosphate buffer pH 6.8), the “inhibitory activity towards the hydroxylation of tyrosine” value is on record as “low activity”. In addition, the “inhibition of the oxidation of DOPA to dopaquinone” value in experiment [2] (calculated at 477 nm, peptide 2 and 0.2 µM, 50 mM phosphate buffer pH 6.8, three replicates) is “about 30%”.
